Data published in patent US6815170B1, “Methods for lymph node identification” (John Wayne Cancer Institute, priority 1999, dated 2004).
“Also recorded” adds a separate entry of the source.

Columns and labels:
[1] = tested on: malignant melanoma; details: liver and lung; cited from earlier work
[2] = tested on: sentinel lymph node; assay: Intraoperative lymphatic mapping / sentinel lymph node dissection with histologic evaluation for carbon particles; format: in vivo, Sprague-Dawley rats; details: for basins in which afferent lymphatic channel and stained (sentinel) node were identified: 0.04 cc intradermal, lower extremity, incision 5 min after injection
Description: Twenty-two adult Sprague-Dawley rats weighing 300-500 g were obtained after receiving approval from the Animal Care and Use Committee at the Harbor-UCLA Research and Education Institute. All animals were obtained at least one day prior to planned procedures.
Isosulfan blue dye (Lymphazurin 1%) was obtained from Hirsch Industries, Inc. (Richmond, Va.). Carbon dye containing 6% carbon black (# 4415) was obtained from Sanford Corporation (Bellwood, Ill.) and either used alone at full strength or mixed with isosulfan blue and/or sterile normal saline in the concentrations shown in Table 1.
All mapping solutions containing ink were sterilized in an autoclave at 121° C. for 25 m, prior to injection.
All procedures were performed under general anesthesia. Rats were anesthetized with a mixture of ketamine (42.9 mg/kg), xylazine (8.6 mg/kg), and acepromazine (1.4 mg/kg). A half-dose of this mixture was readministered at 60 minutes and then every 30 minutes. Buprenorphine (0.01-0.05 mg/kg) was administered subcutaneously for postoperative analgesia.
The inguinal regions of the animals were shaved. A 29-gauge needle with a 1-cc tuberculin syringe was used to inject 0.04 cc of the mapping solution intradermally just below the medial aspect of the knee on the lower extremity. Five minutes later, and under sterile conditions, an incision was made over the region of the inguinal lymph nodes. […] The lymphatic was followed to the first stained lymph node. Further dissection was carried out to identify additional stained nodes. All stained nodes were removed and placed in formalin. Nonstained nodes in the same drainage basin were removed and fixed in a similar fashion, and analyzed for carbon particles. The identical procedure was performed on the contralateral extremity of each animal using an alternative mapping mixture.
Lymph nodes were placed in paraffin blocks, serially sectioned, and stained with hematoxylin and eosin (H and E). Each lymph node was evaluated by light microscopy for the presence of carbon particles.

| SMILES | uptake by non-tumor tissue [1] | basins in which afferent lymphatic channel and stained (sentinel) node were identified ([2]; listed as Isosulfan blue) | basins in which afferent lymphatic channel and stained (sentinel) node were identified ([2]; listed as Isosulfan blue dye) | total number of sentinel nodes ([2]; 6 basins) |
| --- | --- | --- | --- | --- |
| CCN(CC)CCNC(=O)c1ccc(I)cc1 [IDAB, N-(diethylaminoethyl)4-iodobenzamide] | taken up in high concentrations by non-melanoma cells in the liver and lung |  |  |  |
| CCN(CC)c1ccc(C(=C2C=CC(=[N+](CC)CC)C=C2)c2cc(S(=O)(=O)[O-])ccc2S(=O)(=O)[O-])cc1.[Na+] [isosulfan blue dye, isosulfan blue] |  | effectively identified the lymphatic channel and sentinel node(s); also recorded: clearly identified one sentinel node in each paired basin | all 6 | 8 |
